Measured values as given in PMC9612005 (Pharmaceutics, 2022).

Tested on: retinal ganglion cells
Assay: Light-evoked retinal ganglion cell spike responses of mouse retinal explants on MEA
Format: cell-based
Conditions: for Spike count (10 ms bin): inh 50 µM, act 0.1 µM, mean ±std; for drop of RGC spiking activity: ≥−2.0 log
Experimental: Further animal experiments were performed using adult postnatal-day (P) 25–30 C57BL/6J mice (n = 12). Animals were housed under standard 12 h white cyclic lighting, had free access to food, water, and playgrounds, and were used irrespective of gender. Animal protocols compliant with §4 of the German law on animal protection were reviewed and approved by the Tübingen University committee on animal protection, and registered on 30 March 2022 under the No. AK05/22M. Moreover, experiments were performed in accordance with the ARVO statement for the use of animals in ophthalmic and visual research. All efforts were made to minimize the number of mice used and their suffering.
The mice were kept overnight in a ventilated light-tight box for dark-adaption. Subsequent procedures were performed under dim red light. The eyes of the mice were enucleated; then, the retina was isolated in extracellular solution containing (in mM): 125 NaCl, 26 NaHCO3, 2.5 KCl, 2 CaCl2, 1 MgCl2, 1.25 NaH2PO4, and 20 glucose, and was maintained at pH 7.4 using carboxygen perfusion (95/5% O2/CO2). All chemicals were obtained from Merck KGaA (Darmstadt, Germany). For MEA recording, the retinas were placed in the MEA-recording chamber (GC-side down). During the recordings, the tissue was perfused with carboxygenated medium at 32 °C. The chamber perfusion rate was adjusted to 2 mL/min.
Electrophysiological recordings were performed to assess the light dependent retinal responses (photoreceptors µERG and RGCs spikes) by means of a multi-electrode array system (MEA, USB-MEA60-Up-BC-System-E from Multi Channel Systems, Reutlingen, Germany) equipped with MEA 200/30iR-ITO-pr. The recordings were performed at a 25,000 Hz sampling-rate collecting unfiltered raw data. The trigger-synchronized operation of the light stimulation (LEDD1B T-Cube, Thorlabs) and MEA recording were controlled by the recording protocol set within the MCRack software (v 4.6.2, Multi Channel Systems, Reutlingen, Germany) and the digital I/O box (MCS). The light stimulation (white light LED, 2350 mW, MCWHD3, Thorlabs, Newton, NJ, USA) was applied from beneath the transparent glass MEA, guided by optic fiber and optics. A spectrometer USB4000-UV-VIS-ES (Ocean Optics, Orlando, FL, USA) was employed to calibrate the intensity of the applied light-stimulation protocol. To discriminate the rod and cone photoreceptor responses, a light-stimulation protocol for ex vivo MEA recordings was established following the standard in-vivo ERG protocol. For scotopic recordings (rod responses), the animals were dark-adapted (12 h), while for the photopic recordings (cone responses), the retinal explants were light-adapted on the MEA (5 min at intensity of 4.20 × 10^13 photons/cm^2/s), subsequent to scotopic stimulation. The parameters of the light stimuli were set as: light flash 250 ms long (3 repetition per light intensity, 20 s interval). Scotopic: 10 stimuli in 0.5 log steps from −4.5 to 0.0 (1.33 × 10^9–4.20 × 10^13 photons/cm^2/s). Photopic (background light: 4.20 × 10^13 photons/cm^2/s): four stimuli in 0.5 log steps from +0.5 to +2.0 (1.33 × 10^14–4.20 × 10^15 photons/cm^2/s).
MEA-recorded raw data files were filtered employing a Butterworth 2nd order filter (MC-Rack, Multi-channel systems) to extract the µERG (field potentials: bandpass 0.01–100 Hz) and spikes (high pass 200 Hz). The filtered data were converted to *.hdf files by MC DataManager (v1.6.1.0, Multi Channel Systems, Reutlingen, Germany) for further data processing in MATLAB [39]. Shown traces data are the average of 30 MEA recording electrodes, per condition. n = 5 retinae were recorded per condition. Statistical significance was estimated by one-way ANOVA followed by the Dunnett´s test for multiple comparisons. Experimental data are given as mean ± SEM.

[1] = photopic, light intensity +0.5 log
[2] = photopic, light intensity +1.0 log
[3] = photopic, light intensity +1.5 log
[4] = photopic, light intensity +2.0 log
[5] = scotopic, light intensity 0.0 log
[6] = scotopic, light intensity -0.5 log
[7] = scotopic, light intensity -1.0 log
[8] = scotopic, light intensity -1.5 log
[9] = scotopic, light intensity -2.0 log
[10] = scotopic, light intensity -2.5 log
[11] = scotopic, light intensity -3.0 log
[12] = scotopic, light intensity -3.5 log
[13] = scotopic, light intensity -4.0 log
[14] = scotopic, light intensity -4.5 log
[15] = scotopic, inhibitor 50 µM, activator 0.1 µM

For `O=c1c2nc(Br)n([C@@H]3O[C@@H]4CO[P@@](=O)(S)O[C@H]4[C@H]3O)c2nc2[nH]c(-c3ccccc3)cn12` [Rp-8-Br-PET-cGMPS], the “Spike count (10 ms bin)” value [1] was 4.85± 0.92, the “Spike count (10 ms bin)” value [2] was 4.40± 0.94 and the “Spike count (10 ms bin)” value [3] was 4.51± 1.07. The “Spike count (10 ms bin)” value [4] was 4.92± 1.12, the “Spike count (10 ms bin)” value [5] was 3.80± 0.26 and the “Spike count (10 ms bin)” value [6] was 3.48± 0.49. For the same compound, the “Spike count (10 ms bin)” value [7] was 2.91± 0.16, the “Spike count (10 ms bin)” value [8] was 2.80± 0.63 and the “Spike count (10 ms bin)” value [9] was 2.55± 0.62. The “Spike count (10 ms bin)” value [10] was 0.83± 0.28, the “Spike count (10 ms bin)” value [11] was 0.72± 0.10 and the “Spike count (10 ms bin)” value [12] was 1.14± 0.50. The “Spike count (10 ms bin)” value [13] was 0.98± 0.44, the “Spike count (10 ms bin)” value [14] was 1.03± 0.27 and the “drop of RGC spiking activity” value [15] was 30–40%. The “RGC spiking activity under photopic stimulation” value (≥+0.5 log, inhibitor 50 µM, activator 0.1 µM) was “remained nearly at control levels”.
With `Nc1nc2c(nc(Sc3ccc(Cl)cc3)n2[C@@H]2O[C@@H]3COP(=O)(O)O[C@H]3[C@H]2O)c(=O)[nH]1` [8-pCPT-cGMP] the “Spike count (10 ms bin)” value [1] was 4.35± 0.79, the “Spike count (10 ms bin)” value [2] was 4.43± 0.47 and the “Spike count (10 ms bin)” value [3] was 4.74± 1.09. The “Spike count (10 ms bin)” value [4] was 4.56± 0.92, the “Spike count (10 ms bin)” value [5] was 3.92± 0.24 and the “Spike count (10 ms bin)” value [6] was 3.60± 0.35. For the same compound, the “Spike count (10 ms bin)” value [7] was 3.03± 0.52, the “Spike count (10 ms bin)” value [8] was 3.04± 0.49 and the “Spike count (10 ms bin)” value [9] was 2.41± 0.38. For the same compound, the “Spike count (10 ms bin)” value [10] was 1.28± 0.51, the “Spike count (10 ms bin)” value [11] was 0.73± 0.49 and the “Spike count (10 ms bin)” value [12] was 0.86± 0.30. For the same compound, the “Spike count (10 ms bin)” value [13] was 0.89± 0.07, the “Spike count (10 ms bin)” value [14] was 0.67± 0.22 and the “drop of RGC spiking activity” value [15] was 35–47%.
